In US4364958A, “1-Substituted-3-cycloalkyl-sulfonyl-pyrrolidine-2,5-dione derivatives and fungicidal compositions thereof” (Chinoin Gyogyszer es Vegyeszeti Termekek Gyara Rt., priority 1979, dated 1982):
≈ marks a conversion by molar mass, not a printed value. Like-named read-outs stand apart in the source and are kept apart here.

Assays:
[1] = system: Microsporum gypseum ver. vinosum CBS.10064; experiment: minimal inhibitory concentration in Sabouraud medium; assay type: cell-based; conditions: Nannizzia gypsea, 72 h
Text: Microsporum gypseum ver. vinosum CBS.10064
(§1) As a medium Saboroud medium was employed.

[2] = system: Candida tropicalis CBS.433; experiment: as above; assay type: cell-based; conditions: for MIC: Candida tropicalis
Text: Candida tropicalis CBS.433 "3"
as §1

[3] = system: Fusarium oxysporum DSM.10975; experiment: as above; assay type: cell-based
Text: Fusarium oxysporum DSM.10975
as §1

[4] = system: Candida krusei 79/K47; experiment: as above; conditions: Pichia kudriavzevii, read-out: minimal inhibitory concentration
[5] = system: Sporotrichum schenkii CBS.34035; experiment: as above; assay type: cell-based; conditions: 288 hours
Text: Sporotrichum schenkii CBS.34035
as §1

[6] = system: Trichophyton rubrum CBS.30338; experiment: as above; assay type: cell-based; conditions: Trichophyton rubrum
Text: Trichophyton rubrum CBS.30338
as §1

[7] = system: Fusarium culmorum DSM.11425; experiment: as above; assay type: cell-based
Text: Fusarium culmorum DSM.11425
as §1

[8] = system: Aspergillus fumigatus CBS.11326; experiment: as above; assay type: cell-based; conditions: for MIC: Aspergillus fumigatus
Text: Aspergillus fumigatus CBS.11326
as §1

[9] = system: Penicillium chrysogenium CCM.F-362; experiment: as above; assay type: cell-based; conditions: for MIC: Penicillium
Text: Penicillium chrysogenium CCM.F-362
as §1

[10] = system: Verticillium albo-atrum; experiment: activity against phytopathogenic fungi; assay type: cell-based
[11] = system: Saccharomyces cerevisiae OKI.1282; experiment: minimal inhibitory concentration in Sabouraud medium; assay type: cell-based; conditions: for MIC: Saccharomyces cerevisiae
Text: Saccharomyces cerevisiae OKI.1282
as §1

[12] = system: Sclerotinia sclerotiorum; experiment: activity against phytopathogenic fungi; assay type: cell-based
[13] = system: Cercospora beticola; experiment: activity against phytopathogenic fungi; assay type: cell-based
[14] = system: Phytophtora infestans; assay type: cell-based
[15] = system: Epidermophyton floccosum OKI/IV.; experiment: minimal inhibitory concentration in Sabouraud medium; assay type: cell-based; conditions: for MIC: Epidermophyton floccosum
Text: Epidermophyton floccosum OKI/IV.
as §1

[16] = system: Venturia; experiment: activity against phytopathogenic fungi; assay type: cell-based
[17] = system: Fusarium graminocorum DSM.11802; experiment: minimal inhibitory concentration in Sabouraud medium; assay type: cell-based
Text: Fusarium graminocorum DSM.11802
as §1

[18] = system: Aspergillus niger CCM.F-330; experiment: as above; assay type: cell-based; conditions: for MIC: Aspergillus niger
Text: Aspergillus niger CCM.F-330
as §1

[19] = system: Fusarium monoliforme DSM.11778; experiment: as above; assay type: cell-based; conditions: for MIC: Fusarium
Text: Fusarium monoliforme DSM.11778
as §1

[20] = system: Ascochyta pisi; experiment: activity against phytopathogenic fungi; assay type: cell-based
[21] = system: Taphrina deformans; experiment: activity against phytopathogenic fungi; assay type: cell-based
[22] = system: Trichophyton mentagrophytes CBS.50148; experiment: minimal inhibitory concentration in Sabouraud medium; assay type: cell-based; conditions: for MIC: Trichophyton mentagrophytes
Text: Trichophyton mentagrophytes CBS.50148
as §1

[23] = system: Botrytis cinerea; experiment: activity against phytopathogenic fungi; assay type: cell-based
[24] = system: Candida albicans CBS.562; experiment: minimal inhibitory concentration in Sabouraud medium; assay type: cell-based; conditions: for MIC: Candida albicans
Text: Candida albicans CBS.562 "2"
as §1

[25] = system: Aspergillus flavus CBS.24765; experiment: as above; assay type: cell-based; conditions: for MIC: Aspergillus flavus
Text: Aspergillus flavus CBS.24765
as §1

[26] = system: Penicillium chrysogenium CBS.19646; experiment: as above; assay type: cell-based; conditions: for MIC: Penicillium
Text: Penicillium chrysogenium CBS.19646
as §1

[27] = system: Verticillium dahlise; experiment: activity against phytopathogenic fungi; assay type: cell-based
[28] = system: Penicillium digitatum CCM.F-382; experiment: minimal inhibitory concentration in Sabouraud medium; assay type: cell-based; conditions: for MIC: Penicillium digitatum
Text: Penicillium digitatum CCM.F-382
as §1

[29] = system: Aspergillus niger CBS.12648; experiment: as above; assay type: cell-based; conditions: Aspergillus niger
Text: Aspergillus niger CBS.12648
as §1

[30] = system: Cryptococcus neoform. 78/K16; experiment: as above; conditions: read-out: minimal inhibitory concentration
[31] = system: Penicillium digitatum CBS.31948; experiment: as above; assay type: cell-based; conditions: for MIC: Penicillium digitatum
Text: Penicillium digitatum CBS.31948
as §1

O=C1CC(S(=O)(=O)C2CCCCC2)C(=O)N1c1ccccc1 (stereo not shown) [1-Phenyl-3-cyclohexyl-sulfonyl-pyrrolidine-2,5-dione]
MIC [1]: 10 µg/mL (≈ 31.1 µM)
minimal inhibitory concentration ([2]; 24 hours): 75 µg/mL (≈ 233 µM)
minimal inhibitory concentration ([2]; 48 hours): 75 µg/mL (≈ 233 µM)
MIC ([2]; CBS.433, 24 h, 24 hours): 150 µg/mL (≈ 467 µM)
MIC ([2]; CBS.433, 48 h, 48 hours): 150 µg/mL (≈ 467 µM)
MIC ([3]; 72 hours): 50 µg/mL (≈ 156 µM)
MIC ([3]; 144 hours): 75 µg/mL (≈ 233 µM)
MIC ([3]; 288 hours): 75 µg/mL (≈ 233 µM)
MIC ([4]; 79/K47, 24 h): 10 µg/mL (≈ 31.1 µM)
MIC ([4]; 79/K47, 48 h): 10 µg/mL (≈ 31.1 µM)
minimal inhibitory concentration [5]: 100 µg/mL (≈ 311 µM)
MIC ([5]; Sporotrichum, CBS.34035, 288 h): 50 µg/mL (≈ 156 µM)
MIC ([6]; CBS.30338, 72 h, 72 hours): 2.5 µg/mL (≈ 7.78 µM)
MIC ([6]; CBS.30338, 144 h, 144 hours): 10 µg/mL (≈ 31.1 µM)
MIC ([6]; CBS.30338, 288 h, 288 hours): 10 µg/mL (≈ 31.1 µM)
MIC ([7]; 72 hours): 50 µg/mL (≈ 156 µM)
MIC ([7]; 144 hours): 50 µg/mL (≈ 156 µM)
MIC ([7]; 288 hours): 100 µg/mL (≈ 311 µM)
minimal inhibitory concentration ([8]; 288 hours): 200 µg/mL (≈ 622 µM)
MIC ([8]; CBS.11326, 72 h, 72 hours): 50 µg/mL (≈ 156 µM)
MIC ([8]; CBS.11326, 144 h, 144 hours): 150 µg/mL (≈ 467 µM)
MIC ([8]; CBS.11326, 288 h, 288 hours): 150 µg/mL (≈ 467 µM)
minimal inhibitory concentration ([9]; 144 hours): 150 µg/mL (≈ 467 µM)
MIC ([9]; CCM.F362, 72 h, 72 hours): 75 µg/mL (≈ 233 µM)
MIC ([9]; CCM.F362, 144 h, 144 hours): 200 µg/mL (≈ 622 µM)
MIC ([9]; CCM.F362, 288 h, 288 hours): 200 µg/mL (≈ 622 µM)
activity against Verticillium albo-atrum [10]: active
minimal inhibitory concentration ([11]; 24 hours): 75 µg/mL (≈ 233 µM)
minimal inhibitory concentration ([11]; 48 hours): 75 µg/mL (≈ 233 µM)
MIC ([11]; OKI.1282, 24 h, 24 hours): 50 µg/mL (≈ 156 µM)
MIC ([11]; OKI.1282, 48 h, 48 hours): 50 µg/mL (≈ 156 µM)
activity against Sclerotinia sclerotiorum [12]: active
activity against Cercospora beticola [13]: active
activity against Phytophtora infestans [14]: active
minimal inhibitory concentration ([15]; 144 hours): 2.5 µg/mL (≈ 7.78 µM)
minimal inhibitory concentration ([15]; 288 hours): 10 µg/mL (≈ 31.1 µM)
MIC ([15]; 144 h, read-out: minimal inhibitory concentration): 5 µg/mL (≈ 15.6 µM)
MIC ([15]; 288 h, read-out: minimal inhibitory concentration): 5 µg/mL (≈ 15.6 µM)
MIC ([15]; read-out: Minimal inhibitory concentration inhibiting the growth): 1 µg/mL (≈ 3.11 µM)
activity against Venturia [16]: active
MIC ([17]; 72 hours): 50 µg/mL (≈ 156 µM)
MIC ([17]; 144 hours): 100 µg/mL (≈ 311 µM)
MIC ([17]; 288 hours): 100 µg/mL (≈ 311 µM)
minimal inhibitory concentration ([18]; 72 hours): 75 µg/mL (≈ 233 µM)
minimal inhibitory concentration ([18]; 144 hours): 150 µg/mL (≈ 467 µM)
minimal inhibitory concentration ([18]; 288 hours): 150 µg/mL (≈ 467 µM)
MIC ([18]; CCM.F330, 72 h, 72 hours): 150 µg/mL (≈ 467 µM)
MIC ([18]; CCM.F330, 144 h, 144 hours): 200 µg/mL (≈ 622 µM)
MIC ([18]; CCM.F330, 288 h, 288 hours): 250 µg/mL (≈ 778 µM)
minimal inhibitory concentration ([19]; 72 hours): 75 µg/mL (≈ 233 µM)
minimal inhibitory concentration ([19]; 288 hours): 200 µg/mL (≈ 622 µM)
MIC ([19]; DSM.11778, 72 h, 72 hours): 100 µg/mL (≈ 311 µM)
MIC ([19]; DSM.11778, 144 h, 144 hours): 150 µg/mL (≈ 467 µM)
MIC ([19]; DSM.11778, 288 h, 288 hours): 150 µg/mL (≈ 467 µM)
activity against Ascochyta pisi [20]: active
activity against Taphrina deformans [21]: active
minimal inhibitory concentration ([22]; 72 hours): 2.5 µg/mL (≈ 7.78 µM)
MIC ([22]; CBS.50148, 72 h, 72 hours, read-out: minimal inhibitory concentration): 5 µg/mL (≈ 15.6 µM)
MIC ([22]; CBS.50148, 144 h, 144 hours, read-out: minimal inhibitory concentration): 10 µg/mL (≈ 31.1 µM)
MIC ([22]; CBS.50148, read-out: Minimal inhibitory concentration inhibiting the growth): 2.5 µg/mL (≈ 7.78 µM)
activity against Botrytis cinerea [23]: active
minimal inhibitory concentration ([24]; 24 hours): 50 µg/mL (≈ 156 µM)
minimal inhibitory concentration ([24]; 48 hours): 50 µg/mL (≈ 156 µM)
MIC ([24]; CBS.562, 24 h, 24 hours): 75 µg/mL (≈ 233 µM)
MIC ([24]; CBS.562, 48 h, 48 hours): 100 µg/mL (≈ 311 µM)
minimal inhibitory concentration ([25]; 72 hours): 75 µg/mL (≈ 233 µM)
minimal inhibitory concentration ([25]; 144 hours): 150 µg/mL (≈ 467 µM)
minimal inhibitory concentration ([25]; 288 hours): 200 µg/mL (≈ 622 µM)
MIC ([25]; CBS.24765, 72 h, 72 hours): 100 µg/mL (≈ 311 µM)
MIC ([25]; CBS.24765, 144 h, 144 hours): 200 µg/mL (≈ 622 µM)
MIC ([25]; CBS.24765, 288 h, 288 hours): 250 µg/mL (≈ 778 µM)
minimal inhibitory concentration ([26]; 288 hours): 150 µg/mL (≈ 467 µM)
MIC ([26]; CBS.19646, 72 h, 72 hours): 50 µg/mL (≈ 156 µM)
MIC ([26]; CBS.19646, 144 h, 144 hours): 75 µg/mL (≈ 233 µM)
MIC ([26]; CBS.19646, 288 h, 288 hours): 75 µg/mL (≈ 233 µM)
activity against Verticillium dahlise [27]: active
minimal inhibitory concentration ([28]; 288 hours): 50 µg/mL (≈ 156 µM)
MIC ([28]; CCM.F382, 144 h, 144 hours): 50 µg/mL (≈ 156 µM)
MIC ([28]; CCM.F382, 288 h, 288 hours): 75 µg/mL (≈ 233 µM)
MIC ([29]; CBS.12648, 72 h, 72 hours): 75 µg/mL (≈ 233 µM)
MIC ([29]; CBS.12648, 144 h, 144 hours): 150 µg/mL (≈ 467 µM)
MIC ([29]; CBS.12648, 288 h, 288 hours): 150 µg/mL (≈ 467 µM)
MIC ([30]; 24 h): 25 µg/mL (≈ 77.8 µM)
MIC ([30]; 48 h): 25 µg/mL (≈ 77.8 µM)
minimal inhibitory concentration ([31]; 288 hours): 50 µg/mL (≈ 156 µM)
MIC ([31]; CBS.31948, 72 h, 72 hours): 10 µg/mL (≈ 31.1 µM)
MIC ([31]; CBS.31948, 144 h, 144 hours): 25 µg/mL (≈ 77.8 µM)
MIC ([31]; CBS.31948, 288 h, 288 hours): 25 µg/mL (≈ 77.8 µM)
